Test results as given in ChEMBL document CHEMBL5360596, “Triquinane Sesquiterpene Glycosides from the Basidiomycete Antrodiella zonata” (J Nat Prod, 2023).
≈ marks a conversion by molar mass, not a printed value.

Legend:
Staphylococcus aureus = test: Antibacterial activity against Staphylococcus aureus ATCC 29213 assessed as bacterial growth inhibition incubated for 24 hrs by photometric analysis; type: functional
[1] = Immunosuppressive activity against B cell (unknown origin) assessed as inhibition of LPS-induced cell proliferation; type: functional, cell-based

Row | MIC50 (Staphylococcus aureus) [µM] | Compound | IC50 [1] [µM]
1 | 69 (≈ 25.3 µg/mL) | CC1=C2[C@@H]3CC(C)(C)C[C@@H]3[C@H](O[C@@H]3OC[C@@H](O)[C@H](O)[C@H]3O)[C@@]2(C)CC1=O | 
2 |  | CCCCCC[C@@H](O)C(=O)O[C@@H]1[C@@H]2[C@H](CC1(C)C)[C@H](O)[C@@]1([C@H](O)C(=O)OC)OCC(=O)[C@@]21C | 6.6
3 | 34 (≈ 13 µg/mL) | CC1(C)C[C@H]2[C@@H](C1)C1=CC(=O)C[C@]1(C)[C@H]2O[C@@H]1O[C@H](CO)[C@@H](O)[C@H](O)[C@H]1O | 
4 | 35 (≈ 13.9 µg/mL) | CC1=C2[C@@H]3CC(C)(C)C[C@@H]3[C@H](O[C@@H]3O[C@H](CO)[C@@H](O)[C@H](O)[C@H]3O)[C@@]2(C)CC1=O | 
